Values quoted from earlier work in patent US20150150812A1, “CONTROLLED RELEASE FORMULATIONS WITH […]” (Egalet Ltd., priority 2009, published 2015).

Test system: postoperative patients

CN1CC[C@]23c4c5ccc(O)c4O[C@H]2[C@@H](O)C=C[C@H]3[C@H]1C5 [morphine]
Calculated mean (SD) MEAC (10 postoperative patients, Dahlström et al (1982)): 16 (9) ng/mL | Estimated MEAC (postoperative patients, patient-controlled analgesia, Graves et al (1985)): 20 to 40 ng/mL
